Test results: US10456407B2, “Combination therapy for treating cancer” (Epizyme, Inc., priority 2015, dated 2019)

What was measured:
SU-DHL10 cells = assay: RT2 Glucocorticoid signaling PCR array, SU-DHL10 (SUDHL10) cell line (Table 4d); format: cell-based; details: SUDHL10, 4 days, vs DMSO
Text: (§1) Expression levels of (A). Sestrin; (B). TNF and (C) GILZ normalized to DMSO controls for each cell line with the indicated single agent or combination.

RL cells = assay: RT2 Glucocorticoid signaling PCR array, RL (Table 4e, printed RI) cell line; format: cell-based; details: 4 days, Cpd44 1 uM, Pred 10-fold below 4-day IC50, vs DMSO, B2M-normalized
Text: as §1

Compound | ADARB1 ΔΔCT (SU-DHL10 cells) | AK2 ΔΔCT (SU-DHL10 cells) | ARIDS8 ΔΔCT (SU-DHL10 cells) | ASPH ΔΔCT (SU-DHL10 cells) | CEBPA ΔΔCT (SU-DHL10 cells) | DDIT4 ΔΔCT (SU-DHL10 cells) | H6PD ΔΔCT (SU-DHL10 cells) | LOX ΔΔCT (SU-DHL10 cells) | NR3C1 ΔΔCT (SU-DHL10 cells) | PER2 ΔΔCT (SU-DHL10 cells) | SPHK1 ΔΔCT (SU-DHL10 cells) | STAT5B ΔΔCT (SU-DHL10 cells) | TNF ΔΔCT (SU-DHL10 cells) | VDR ΔΔCT (SU-DHL10 cells) | also measured
C[C@]12C=CC(=O)C=C1CC[C@@H]1[C@@H]2[C@@H](O)C[C@@]2(C)[C@H]1CC[C@]2(O)C(=O)CO [Prednisolone, prednisolone] | 2.234 | −0.345 | 1.603 | 0.169 | 0.784 | −1.212 | 0.844 | −0.505 | 0.256 | −0.204 | −0.279 | 0.719 | 0.221 | −0.245 | ΔΔCT (RL cells; ATF4 mRNA): 1.364; ΔΔCT (RL cells; CREB3 mRNA): 0.762; ΔΔCT (RL cells; CYB561 mRNA): −1.663; ΔΔCT (RL cells; PIK3R1 mRNA): 0.974; ΔΔCT (RL cells; POU2F1 mRNA): 1.130; ΔΔCT (RL cells; SESN1 mRNA): −4.062; ΔΔCT (RL cells; SLC19A2 mRNA): 0.047; ΔΔCT (RL cells; ZHX3 mRNA): 0.168
CCN(c1cc(-c2ccc(CN3CCOCC3)cc2)cc(C(=O)NCc2c(C)cc(C)[nH]c2=O)c1C)C1CCOCC1 [Compound 44] | 0.073 | −0.101 | 0.650 | 0.296 | −1.026 | 1.444 | 1.221 | 1.164 | 0.527 | 0.441 | 0.231 | 0.027 | −0.204 | −0.714 | ΔΔCT (RL cells; AMPD3 mRNA): −0.885; ΔΔCT (RL cells; ASPH mRNA): 0.476; ΔΔCT (RL cells; BCL6 mRNA): 0.263; ΔΔCT (RL cells; FOSL2 mRNA): −1.274; ΔΔCT (RL cells; TSC22D3 mRNA): 0.189; ΔΔCT (RL cells; ZFP36 mRNA): −0.036
